Test results published in patent publication US11458149B1, “TEAD inhibitors and uses thereof” (Ikena Oncology, Inc., priority 2019, dated 2022).
Read-outs that look alike come from different tables or passages of the source.

How the values were obtained:
[1] = Mouse pharmacokinetics study; assay type: in vivo; conditions: BALB/c mice, 10 mg/kg oral gavage, 5% DMS/95% PEG400, plasma
Procedure: Formulated compounds were administered intravenously or orally via gavage to BALB/c mice. Typically, at 0.167, 0.5, 1, 2, 4, 6, 12, and 24 hours post-dose, blood was collected and processed to plasma by centrifugation and stored at −80° C. until analysis. Internal standard was added to each sample prior to protein precipitation with acetonitrile or TCA. The precipitates were filtered through a filter plate and the samples were analyzed by LC/MS/MS. A standard curve was prepared in plasma from typically from 1.0 ng/mL to 3000 ng/mL and processed in the same manner as the samples. Sample analysis was typically performed on a suitable LC/MS/MS system fitted with an analytical UPLC column and compounds eluted from the analytical column with a gradient from 30-95% 0.1% formic acid (v/v) in ACN: 0.1% formic acid (v/v) in water. Mass spectrometric detection of test compound and the internal standard was performed by […] in positive mode. The pharmacokinetics of each compound were analyzed by Phoenix WinNonlin software (Pharsight, St. Louis, Mo.) via noncompartmental analysis. FIG. 4 depicts pharmacokinetic (PK) properties of isomer 1 of compound I-186 following dosing in BALB/c mice.

H28 = assay: Anti-proliferation assay in H28 cells; assay type: cell-based; conditions: Homo sapiens, NCI-H28
Procedure: (§1) Certain compounds were tested in TEAD reporter assay, and in H226 and H28. A: EC50<0.1 uM; B: 0.1 uM≤EC50≤0.5 uM; C: EC50>0.5 uM.
(§2) Individual cell lines were grown in medium according to supplier instructions and seeded into 96-well plates at a density that ensured logarithmic growth over 72 hours. TEAD inhibitor compounds were administered to cells at a top concentration of 10 μm and subsequently a 10 point 3-fold serial dilution was conducted. After 72 hours, proliferation was quantified using Cell TITERGLO™ (Promega, Inc.) and compared to vehicle control. IC50 and EC50 values were generated using XLFit curve fitting software.
The effect of isomer 2 of compound I-12 on cell proliferation is dependent on the presence of a Hippo/NF2 mutation. No effect is seen by isomer 2 of compound I-12 on the NF2 wild-type H28 cell line.

H226 = assay: Anti-proliferation assay in H226 cells; assay type: cell-based, human; conditions: read-out: H226 EC50
Procedure: as §1, §2

TEAD = TEAD reporter assay (Hippo Pathway TEAD Reporter - MCF7 cell line, luciferase); assay type: cell-based, human; conditions: read-out: TEAD Reporter Assay EC50
Source text: TEAD inhibition can be assayed using Hippo Pathway TEAD Reporter—MCF7 Cell Line (BPS Bioscience, Catalog #: 60618).
The TEAD Reporter—MCF7 cell line contains the firefly luciferase gene under the control of TEAD responsive elements stably integrated into the human breast cancer cell line, MCF7. Inside the cells, basal unphosphorylated YAP/TAZ remains in the nucleus and induces the constitutive expression of luciferase reporter. The cell line is validated for the inhibition of the expression of luciferase reporter by the activators of the Hippo pathway.
• 1) Harvest TEAD Reporter—MCF7 cells from culture in growth medium and seed cells at a density of 35,000 cells per well into white clear-bottom 96-well microplate in 45 μl of assay medium. • 2) Incubate cells at 37° C. in a CO2 incubator for overnight. • 3) Dilute the activators (H2O2 or okadaic acid) stock in assay medium. Add 5 μl of diluted activators to the wells. The final concentration of DMSO in assay medium is 0.1%. • 4) Add 5 μl of assay medium with same concentration of DMSO without activator to control wells. • 5) Add 50 μl of assay medium with DMSO to cell-free control wells (for determining background luminescence). • 6) Set up each treatment in at least triplicate. • 7) Incubate cells at 37° C. in a CO2 incubator for 5-6 hours. • 8) Perform luciferase assay using the ONE-Step™ Luciferase Assay System following the protocol provided: Add 100 μl of ONE-Step™ Luciferase reagent per well and rock at room temperature for ˜15 minutes. Measure luminescence using a luminometer. • 9) Data Analysis: Obtain the background-subtracted luminescence by subtracting the average background luminescence (cell-free control wells) from the luminescence reading of all wells.
as §1

[2] = Homo sapiens, NCI-H226, H226 cells
[3] = Homo sapiens, MCF7, TEAD Reporter - MCF7 cells

Work on `C=CC(=O)NC1CCN(Cc2ccc(C(F)(F)F)cc2)c2ccccc21` (stereo in doubt) [Compound I-203, N-[(4R)-1-[[4-(Trifluoromethyl)phenyl]methyl]-3,4-dihydro-2H-quinolin-4-yl]prop-2-enamide] yielded an AUC(0-t) ([1]; mouse) of 275 ng·h/mL and a Cmax ([1]; mouse, read-out: Cmax) of 63.3 ng/mL.

In the case of `C=CC(=O)Nc1ccc(C)c(Oc2cc(C(F)(F)F)ccn2)c1` [Compound I-31, N-[4-methyl-3-[[4-(trifluoromethyl)-2-pyridyl]oxy]phenyl]prop-2-enamide], the EC50 (H28) is reported as > 500 nM, the EC50 (H226; [2]) is reported as < 100 nM and the EC50 (TEAD; [3]) is reported as < 100 nM.

For `C=CC(=O)NC1CCN(Cc2ccc(C(F)(F)F)cc2)CC1` [Compound I-46, N-[1-[[4-(Trifluoromethyl)phenyl]methyl]-4-piperidyl]prop-2-enamide], the EC50 (H28) was > 500 nM, the EC50 (H226; [2]) was 100 to 500 nM and the AUC(0-t) ([1]; mouse) was 1140 ng·h/mL. It also gave a Cmax ([1]; mouse, read-out: Cmax) of 735 ng/mL and an EC50 (TEAD; [3]) of 100 to 500 nM.

For `C=CC(=O)Nc1cc(Oc2cccc(C(F)(F)F)c2)c2ccccc2c1` [Compound I-29, N-[4-[3-(Trifluoromethyl)phenoxy]-2-naphthyl]prop-2-enamide], the EC50 (H28) was > 500 nM, the EC50 (H226; [2]) was 100 to 500 nM and the EC50 (TEAD; [3]) was < 100 nM.

In the case of `C=CC(=O)Nc1ccc(C)c(N(C)c2cccc(C(F)(F)F)c2)c1` [Compound I-35, N-[4-methyl-3-[N-methyl-3-(trifluoromethyl)anilino]phenyl]prop-2-enamide], the EC50 (H28) is reported as > 500 nM, the EC50 (H226; [2]) is reported as < 100 nM and the EC50 (TEAD; [3]) is reported as < 100 nM.

Work on `C=CC(=O)N1CC[C@@H](NCc2ccc(C(F)(F)F)cc2)C1` [Compound I-211, 1-[(3R)-3-[[4-(trifluoromethyl)phenyl]methylamino]pyrrolidin-1-yl]prop-2-en-1-one] yielded an AUC(0-t) ([1]; mouse) of 1260 ng·h/mL and a Cmax ([1]; mouse, read-out: Cmax) of 1250 ng/mL.

In the case of `C=CC(=O)NC1CCN(Cc2ccccc2C(F)(F)F)CC1` [Compound I-49, N-[1-[[2-(trifluoromethyl)phenyl]methyl]-4-piperidyl]prop-2-enamide], the EC50 (H28) is reported as > 500 nM, the EC50 (H226; [2]) is reported as > 500 nM and the EC50 (TEAD; [3]) is reported as > 500 nM.

With `C=CC(=O)Nc1ccc(-c2cn(C)cn2)c(Nc2cccc(C(F)(F)F)c2)c1` [Compound I-40, N-[4-(1-methylimidazol-4-yl)-3-[3-(trifluoromethyl)anilino]phenyl]prop-2-enamide] the EC50 (H28) was > 500 nM, the EC50 (H226; [2]) was < 100 nM and the EC50 (TEAD; [3]) was < 100 nM.

In the case of `C=CC(=O)Nc1ccc(C)c(Nc2ccc(Cl)cc2)c1` [Compound I-27, N-[3-(4-Chloroanilino)-4-methyl-phenyl]prop-2-enamide], the EC50 (H28) is reported as > 500 nM, the EC50 (H226; [2]) is reported as < 100 nM and the EC50 (TEAD; [3]) is reported as < 100 nM.

In the case of `C=CC(=O)Nc1ccc(C)c(Oc2cncc(C(F)(F)F)c2)c1` [Compound I-30, N-[4-Methyl-3-[[5-(trifluoromethyl)-3-pyridyl]oxy]phenyl]prop-2-enamide], the EC50 (H28) is reported as > 500 nM, the EC50 (H226; [2]) is reported as < 100 nM and the EC50 (TEAD; [3]) is reported as < 100 nM.

With `C=CC(=O)Nc1ccc(C)c(Nc2cccc(C(F)(F)F)c2)c1` [Compound I-33, N-[4-Methyl-3-[3-(trifluoromethyl)anilino]phenyl]prop-2-enamide] the EC50 (H28) was > 500 nM, the EC50 (H226; [2]) was < 100 nM and the EC50 (TEAD; [3]) was < 100 nM.

For `C=CC(=O)Nc1ccc(Br)c(Nc2cccc(C(F)(F)F)c2)c1` [Compound I-36, N-[4-bromo-3-[3-(trifluoromethyl)anilino]phenyl]prop-2-enamide], the EC50 (H28) was > 500 nM, the EC50 (H226; [2]) was < 100 nM and the EC50 (TEAD; [3]) was < 100 nM.

For `C=CC(=O)Nc1cccc(C)c1Oc1ccc(Cl)cc1` [Compound I-28, N-[2-(4-Chlorophenoxy)-3-methyl-phenyl]prop-2-enamide], the EC50 (H28) was > 500 nM, the EC50 (H226; [2]) was > 500 nM and the EC50 (TEAD; [3]) was > 500 nM.

In the case of `C=CC(=O)NC1CCN([C@H](C)c2ccc(C(F)(F)F)cc2)CC1` [Compound I-62, N-[1-[(1R)-1-[4-(Trifluoromethyl)phenyl]ethyl]-4-piperidyl]prop-2-enamide], the EC50 (H226; [2]) is reported as < 100 nM, the AUC(0-t) ([1]; mouse) is reported as 368 ng·h/mL and the Cmax ([1]; mouse, read-out: Cmax) is reported as 345 ng/mL. The EC50 (TEAD; [3]) was < 100 nM.

In the case of `C=CC(=O)N[C@H]1[C@@H]2CCN(Cc3ccc(C(F)(F)F)cc3)C[C@@H]21` [Compound I-208, N-[(1R,6R,7S)-4-[[4-(trifluoromethyl)phenyl]methyl]-4-azabicyclo[4.1.0]heptan-7-yl]prop-2-enamide], the AUC(0-t) ([1]; mouse) is reported as 226 ng·h/mL and the Cmax ([1]; mouse, read-out: Cmax) is reported as 318 ng/mL.

In the case of `C=CC(=O)N[C@@H]1Cc2ccccc2N(Cc2cccc(C(F)(F)F)c2)C1` [Compound I-71, N-[(3R)-1-[[3-(Trifluoromethyl)phenyl]methyl]-3,4-dihydro-2H-quinolin-3-yl]prop-2-enamide], the EC50 (H226; [2]) is reported as < 100 nM and the EC50 (TEAD; [3]) is reported as < 100 nM.

In the case of `C=CC(=O)N1CC[C@@H](NCc2cccc(C(F)(F)F)c2)C1` [Compound I-386, 1-[(3R)-3-[[3-(Trifluoromethyl)phenyl]methylamino]pyrrolidin-1-yl]prop-2-en-1-one], the EC50 (H226; [2]) is reported as 100 to 500 nM and the EC50 (TEAD; [3]) is reported as 100 to 500 nM.

For `C=CC(=O)NC1[C@H]2CN(Cc3ccc(C(F)(F)F)cc3)C[C@@H]12` (stereo partly drawn) [Compound I-69, N-[(1R,5S)-3-[[4-(Trifluoromethyl)phenyl]methyl]-3-azabicyclo[3.1.0]hexan-6-yl]prop-2-enamide], the EC50 (H226; [2]) was < 100 nM, the AUC(0-t) ([1]; mouse) was 1240 ng·h/mL and the Cmax ([1]; mouse, read-out: Cmax) was 1160 ng/mL. The EC50 (TEAD; [3]) was < 100 nM.

With `C=CC(=O)NC1CCC(Oc2ccc(C(F)(F)F)cc2)CC1` (centres unmarked) [Compound I-70, N-[4-[4-(Trifluoromethyl)phenoxy]cyclohexyl]prop-2-enamide] the EC50 (H226; H226 cells) was < 100 nM and the EC50 (TEAD; TEAD Reporter - MCF7 cells) was < 100 nM.

In the case of `C=CC(=O)Nc1ccc(C)c(Oc2ccc(Cl)cc2)c1` [Compound P-5], the AUC0-last [1] is reported as 397 ng·h/mL and the Cmax [1] is reported as 246 ng/mL.

With `C=CC(=O)NC1CCN(S(=O)(=O)c2ccc(C(F)(F)F)cc2)CC1` [Compound I-50, N-[1-[4-(trifluoromethyl)phenyl]sulfonyl-4-piperidyl]prop-2-enamide] the EC50 (H28) was > 500 nM, the EC50 (H226; [2]) was > 500 nM and the EC50 (TEAD; [3]) was > 500 nM.

In the case of `C=CC(=O)Nc1cc(Oc2cccc(C(F)(F)F)c2)cc2ncccc12` [Compound I-42], the EC50 (H226; [2]) is reported as 100 to 500 nM and the EC50 (TEAD; [3]) is reported as < 100 nM.
